Consider 1 compound from patent US11470793B2, “Bacterial strain having anti-fungal properties and uses thereof” (Kontzamanis Graumann Smith MacMillan Inc., priority 2019, dated 2022).

This experiment deals with F. graminearum 3ADON (high toxin producing strain). The class given is cell-based, Fusarium graminearum.

Turning to `CC(/C=C/[C@@]1(C)[C@H](C)CCC(=O)[C@@H]1C)=C\Cc1c(O)cc(C)c(C=O)c1O` [cylindrol B, 4-dihydroxy-6-methyl-3-[(2E,4E)-3-methyl-5-[(1R,2R,6R)-1,2,6-trimethyl-3-oxocyclohexyl]penta-2,4-dienyl]benzaldehyde], the “clearing of fungus around the well” value was “showed a clearing of fungus around the well”.
